The source of these data is patent publication US5079228A, “Peptide inhibitors of neutrophil activating factor induced chemotaxis” (Board of Regents, The University of Texas System, priority 1990, dated 1992).

Entries after “also recorded” stand apart in the source; their conditions may differ.

Test [1] deals with neutrophil chemotaxis. The settings on record: Tanaka et al.; cited from earlier work.
For test [2], the system named is human neutrophils. The test is described as follows: Neutrophil chemotaxis, leading front method in blind well chamber (chemotactic activity of the peptide itself). Format: cell-based. The settings on record: for DISTANCE MOVED (% of control): control = RPMI-1640; for effect on cell migration (in words): peptide concentration of 1×10^-9 M, FIG. 1. How it is done: Each of the peptides was assayed for its ability to induce the directed migration of neutrophils towards itself. […] The distances migrated by the cells, under the influence of the various peptides, was therefore expressed as a percentage of the distance travelled in RPMI tissue culture medium alone. In the first experiments the effect of native NAF on the cells was compared to that of FMLP (FIG. I). […] None of the synthetic peptides induced chemotaxis either alone or in combination with one another when the synthetic peptides were examined under the same conditions (FIG. 2).
(§1) Human blood was anticoagulated with heparin.
(§2) Chemotaxis was performed using the leading front method as described by Zigmond and Hirsch.^21 The test material was placed in the lower well of a blind well chemotaxis chamber.^22 A five micron pore size, and 100 μl aliquot of the neutrophil preparation (1×10^6 cells/ml) in RPMI-1640 containing 1% albumin was added to the top of the filter and incubated at 37° C. for 30 min. (In some experiments neutrophils were pre-incubated in the presence of peptide for 10 min at room temperature before being added to the upper chamber.) The filter was then fixed and stained and mounted on a glass microscope slide. The leading front was determined by the position of the leading two cells. The distance that the leading two cells had moved through the filter was measured for six fields on each filter. The measurements were made with two filters for each set of conditions.

Test [3] has as its system cytochalasin B primed neutrophils. Description: Enzyme release from neutrophils (β-D-glucuronidase, microtiter plate). Format: cell-based, human. The settings on record: 37° C., 30 min, FIG. 3. How it is done:
Neutrophil enzyme release was measured by a modification of the method of Goldstein and colleagues.^23 Cytochalasin B (Sigma Chemical Co., St. Louis, Mo.) was stored in dimethylsulphoxide at a concentration of 5 mg/ml and diluted to a concentration of 100 μg/ml in Hanks' balanced salt solution (HBSS) immediately before use. Neutrophils were prepared as described and incubated at a cell density of 5×10^6 cells/ml for ten minutes at room temperature in the presence of Cytochalasin B (10 μg/ml). Aliquots of 100 μl of the primed cell suspension were then distributed into the wells of a 96-well microtiter plate and 100 μl of stimulant was added. The cells were then incubated at 37° C. for 30 min. The plates were centrifuged at 850 rpm for 5 min, and 100 μl of supernatant was removed. The supernatants were assayed for β-D-glucuronidase activity.
The ability of native NAF and the synthetic peptides to induce the release of β-D-glucuronidase from cytochalasin B primed neutrophils was examined using a microtiter plate technique. […]
β-D-glucuronidase was measured by determining the change in absorbance of phenolphthalein β-D-glucuronide (Sigma Chemical Co.) at 540 nm by the method of Gianetto and DeDuve.^24 The results were expressed as picomoles of substrate hydrolysed per hour.

Test [4] concerns chemotaxis induced by FMLP. The test is described as follows: Specificity: effect on FMLP-induced neutrophil chemotaxis. Format: cell-based, human. Conditions: FMLP 5 × 10^-9 M plus peptide 1 × 10^-6 M. The source says:
The peptides were examined to determine if any of the peptides could block the action of the native molecule. In these experiments the attractant in the lower well of the Boyden chamber contained both native NAF (1×10^-8 M) and one or more synthetic peptide(s) (1×10^-6 M) Table 2. The migration of the cells in RPMI tissue culture medium alone, or under the influence of native NAF or the individual peptides was also examined in each experiment. […] The mean migration of native NAF was an average of 79% (S.D.=3) above that of buffer alone, while the mean migration towards native NAF in the presence of NAF (3-25) was 32% (S.D.=10) and the mean migration towards native NAF in the presence of NAF (44-72) (S.D.=13) was 52% above control migration (Table 2). These reductions are statistically significant at p<0.002 by Student's t test. […]
Chemotaxis was performed using the leading front method as described by Zigmond and Hirsch.^21 The test material was placed in the lower well of a blind well chemotaxis chamber.^22 A five micron pore size, and 100 μl aliquot of the neutrophil preparation (1×10^6 cells/ml) in RPMI-1640 containing 1% albumin was added to the top of the filter and incubated at 37° C. for 30 min. […] The leading front was determined by the position of the leading two cells. The distance that the leading two cells had moved through the filter was measured for six fields on each filter. […]

For test [5], the system named is Neutrophil activating factor induced human neutrophil chemotaxis. The test is described as follows: Inhibition of NAF-induced neutrophil chemotaxis. Format: cell-based.
Excerpt: The peptides were examined to determine if any of the peptides could block the action of the native molecule. In these experiments the attractant in the lower well of the Boyden chamber contained both native NAF (1×10^-8 M) and one or more synthetic peptide(s) (1×10^-6 M) Table 2. The migration of the cells in RPMI tissue culture medium alone, or under the influence of native NAF or the individual peptides was also examined in each experiment. […] The mean migration of native NAF was an average of 79% (S.D.=3) above that of buffer alone, while the mean migration towards native NAF in the presence of NAF (3-25) was 32% (S.D.=10) and the mean migration towards native NAF in the presence of NAF (44-72) (S.D.=13) was 52% above control migration (Table 2). These reductions are statistically significant at p<0.002 by Student's t test. These two peptides inhibited NAF induced migration by 59 and 34% respectively. When NAF was incubated in the presence of both peptides the mean migration towards native NAF was 24% (S.D.=3) above controls for a total inhibition of NAF activity of 70%. Therefore, the inhibitory effects of the peptides were approximately additive.
as §1, §2

The mark [6] stands for this setting: NAF 1 × 10^-8 M plus peptide 1 × 10^-6 M in lower well.
[7] abbreviates: NAF 1 × 10^-8 M, neutrophils preincubated with peptide 1 × 10^-6 M (10 min, room temperature).

In the case of “(7-37): peptide of Tanaka et al. corresponding to residues (7-37) of the NAF sequence (AKELRCQCIKTYSKPFHPKFIKELRVIESGP; Interleukin-8; UniProt P10145 29-59, looked up, fragment)”, in test [1], the “chemotactic activity (in words)” value was “inactive” and the “inhibition of chemotaxis (in words)” value is given as “did not find that any of their synthetic peptides inhibited chemotaxis”.
Regarding “(17-37): peptide of Tanaka et al. corresponding to residues (17-37) of the NAF sequence (TYSKPFHPKFIKELRVIESGP; Interleukin-8; UniProt P10145 39-59, looked up, fragment)”, in test [1], the “chemotactic activity (in words)” value is “inactive” and the “inhibition of chemotaxis (in words)” value is “did not find that any of their synthetic peptides inhibited chemotaxis”.
With “(30-72): peptide of Tanaka et al. corresponding to residues (30-72) of the NAF sequence (LRVIESGPHCANTEIIVKLSDGRELCLDPKENWVQRVVEKFLK; Interleukin-8; UniProt P10145 52-94, looked up, fragment)”, in test [1], the “chemotactic activity (in words)” value was “inactive” and the “inhibition of chemotaxis (in words)” value was “did not find that any of their synthetic peptides inhibited chemotaxis”.
On to FMLP, for which, in test [2] (FMLP alone, 5 × 10^-9 M), the “DISTANCE MOVED (% of control)” value is 180 ± 17 % of control. The “effect on cell migration (in words)” value in test [2] was “increase the cell migration”. In test [3], the “release of β-D-glucuronidase from neutrophils (in words)” value is on record as “stimulated release from the cells was possible”.
In the case of KELRCQCIKTYSKPFHPKFIKEL [NAF(3-25)], the “DISTANCE MOVED (% of control)” value in test [4] is 190 ± 18 % of control; in test [5] (setting [6]), 132 ± 10 % of control; in test [5] (setting [7]), 97 ± 11 % of control; in test [2] (synthetic peptide alone, 1 × 10^-6 M in lower well) it was 100 ± 6 % of control. The “INHIBITION (%) of NAF-induced neutrophil chemotaxis” value was 59 ± 13% in test [5] (setting [6]); 59% in test [5] (NAF 1 × 10^-8 M plus peptide 1 × 10^-6 M in lower well, listed as NAF (3-25)); 104 ± 14% in test [5] (setting [7]). Also, the “mean migration towards native NAF in the presence of peptide, above control migration” value in test [5] (native NAF 1 × 10^-8 M plus synthetic peptide(s) 1 × 10^-6 M) came out at 32%. Besides, the “effect on the action of native NAF (in words)” value in test [5] (native NAF plus synthetic peptide) is on record as “able to reduce neutrophil chemotaxis; also recorded: reduce the action of native NAF”.
In the case of Neutrophil activating factor [NAF], the “DISTANCE MOVED (% of control)” value in test [2] (NAF alone, 1 × 10^-8 M) is 179 ± 3 % of control. In addition, the “mean migration above that of buffer alone” value in test [2] (native NAF 1 × 10^-8 M) came out at 79%. Moreover, the “effect on cell migration (in words)” value in test [2] is “increase the cell migration”. Further, in test [3], the “release of β-D-glucuronidase from neutrophils (in words)” value is recorded as “Neither NAF nor any of the synthetic peptides caused the cells to degranulate; also recorded: failed to release β-D-glucuronidase; also recorded: None of the synthetic peptides, nor native NAF, caused release of β-D-glucuronidase”.
